In patent US9006450B2 (Boehringer Ingelheim International GmbH, priority 2010, dated 2015):
pIC50: −log10 of the molar value.

These molecules were tested against T1, human ACC2 (Homo sapiens, UniProt O00763) (assay: ACC2 assay, spectrophotometric 384 well assay (NADH-linked, coupled lactate dehydrogenase/pyruvate kinase)). Details: ACC2 assay, hACC2 construct lacking 128 N-terminal amino acids, 25° C., 340 nm; read-out: IC50.
T1 construct: made in house; host or cells: insect cells (baculoviral expression system)
T1 sequence (O00763 129-2458 limits assumed): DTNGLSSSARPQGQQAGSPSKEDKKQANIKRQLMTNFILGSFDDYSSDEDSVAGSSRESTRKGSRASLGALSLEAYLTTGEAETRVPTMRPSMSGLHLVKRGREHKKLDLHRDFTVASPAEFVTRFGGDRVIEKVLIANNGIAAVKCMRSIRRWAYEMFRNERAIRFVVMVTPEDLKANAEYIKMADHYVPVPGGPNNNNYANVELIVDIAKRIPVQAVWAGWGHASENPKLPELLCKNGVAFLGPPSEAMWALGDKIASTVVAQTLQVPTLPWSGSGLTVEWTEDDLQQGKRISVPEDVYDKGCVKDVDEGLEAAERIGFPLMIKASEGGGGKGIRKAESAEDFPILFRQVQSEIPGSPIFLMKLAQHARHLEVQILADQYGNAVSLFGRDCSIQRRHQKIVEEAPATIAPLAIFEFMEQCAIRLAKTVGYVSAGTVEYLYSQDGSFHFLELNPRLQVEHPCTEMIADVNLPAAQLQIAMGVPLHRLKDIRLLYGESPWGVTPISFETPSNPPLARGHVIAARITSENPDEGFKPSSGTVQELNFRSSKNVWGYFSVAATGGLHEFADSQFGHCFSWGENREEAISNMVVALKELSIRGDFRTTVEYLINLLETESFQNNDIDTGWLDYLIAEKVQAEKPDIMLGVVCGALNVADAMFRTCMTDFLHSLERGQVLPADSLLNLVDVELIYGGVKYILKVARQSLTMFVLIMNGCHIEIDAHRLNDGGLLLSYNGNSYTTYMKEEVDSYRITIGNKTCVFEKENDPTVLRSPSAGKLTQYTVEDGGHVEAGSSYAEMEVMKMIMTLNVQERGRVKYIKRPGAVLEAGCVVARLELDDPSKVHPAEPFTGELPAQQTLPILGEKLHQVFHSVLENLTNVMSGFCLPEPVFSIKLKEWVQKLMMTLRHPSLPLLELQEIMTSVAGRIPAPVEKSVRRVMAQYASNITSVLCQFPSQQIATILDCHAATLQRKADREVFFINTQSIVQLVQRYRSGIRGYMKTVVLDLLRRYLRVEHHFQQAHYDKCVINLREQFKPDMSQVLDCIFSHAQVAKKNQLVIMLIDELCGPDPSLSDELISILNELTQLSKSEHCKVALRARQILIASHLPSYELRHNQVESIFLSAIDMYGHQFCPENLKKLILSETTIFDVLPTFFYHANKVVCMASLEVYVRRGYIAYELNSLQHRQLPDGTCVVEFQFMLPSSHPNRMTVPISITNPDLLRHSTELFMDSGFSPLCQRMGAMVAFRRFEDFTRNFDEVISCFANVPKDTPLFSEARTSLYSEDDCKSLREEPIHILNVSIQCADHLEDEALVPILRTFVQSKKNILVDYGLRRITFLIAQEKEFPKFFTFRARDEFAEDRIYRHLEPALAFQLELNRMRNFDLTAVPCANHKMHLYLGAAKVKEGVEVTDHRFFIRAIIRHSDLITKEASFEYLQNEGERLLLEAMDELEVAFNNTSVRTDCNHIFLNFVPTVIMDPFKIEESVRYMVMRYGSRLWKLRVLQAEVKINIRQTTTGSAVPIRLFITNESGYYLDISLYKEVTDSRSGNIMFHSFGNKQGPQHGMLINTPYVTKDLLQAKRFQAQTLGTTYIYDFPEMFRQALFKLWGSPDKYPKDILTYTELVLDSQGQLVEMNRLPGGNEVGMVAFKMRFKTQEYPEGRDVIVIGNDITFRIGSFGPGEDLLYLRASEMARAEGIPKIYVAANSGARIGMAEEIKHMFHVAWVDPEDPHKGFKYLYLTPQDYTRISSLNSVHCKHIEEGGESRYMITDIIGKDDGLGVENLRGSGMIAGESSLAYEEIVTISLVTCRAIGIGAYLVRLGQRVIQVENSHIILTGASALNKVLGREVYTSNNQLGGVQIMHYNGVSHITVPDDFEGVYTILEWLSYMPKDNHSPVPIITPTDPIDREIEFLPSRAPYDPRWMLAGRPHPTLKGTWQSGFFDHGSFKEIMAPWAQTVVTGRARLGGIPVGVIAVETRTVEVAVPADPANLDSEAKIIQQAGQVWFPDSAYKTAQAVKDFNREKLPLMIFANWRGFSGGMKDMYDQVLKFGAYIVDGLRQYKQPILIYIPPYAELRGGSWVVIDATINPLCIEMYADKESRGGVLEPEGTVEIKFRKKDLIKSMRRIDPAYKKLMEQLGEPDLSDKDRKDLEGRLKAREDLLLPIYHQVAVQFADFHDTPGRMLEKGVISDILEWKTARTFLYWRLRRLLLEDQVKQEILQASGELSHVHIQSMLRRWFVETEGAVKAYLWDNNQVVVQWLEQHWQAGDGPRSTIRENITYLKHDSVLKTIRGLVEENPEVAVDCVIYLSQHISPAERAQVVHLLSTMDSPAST
Type: biochemical
Summary of the method: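 ADP output tracked via pyruvate kinase/lactate dehydrogenase NADH oxidation, slope at 340 nm over 15 min, 25° C, with 500 μM ATP and 200 μM each acetyl-CoA and NADH. Enzyme: insect-cell-expressed human ACC2, N-terminal 128 residues deleted; pH 7.5 Tris with citrate, KHCO3. IC50 from four-parameter regression versus vehicle and no-acetyl-CoA controls.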

pIC50	SMILES
6.59	CC(=O)N[C@@H](C)c1ccc(C2CCN(c3ccc4oc(C(C)C)nc4c3)CC2)cc1 [Example 15.6]
5.80	CC(=O)N[C@@H](C)c1ccc(C2CCN(c3ncc(C(=O)N4CCc5ccccc54)cn3)CC2)cc1 [Example 18.9]
6.00	CC(=O)N[C@@H](C)c1ccc(C2CCN(c3cccc(C#N)n3)CC2)cc1 [Example 5.19]
6.48	CCOc1cccc(N2CCC(c3ccc([C@H](C)NC(C)=O)cc3)CC2)n1 [Example 4.27]
6.96	CC(=O)N[C@@H](C)c1ccc(C2CCN(c3ncc(-c4ccc(C)cn4)cn3)CC2)cc1 [Example 10.121]
6.21	CC(=O)N[C@@H](C)c1ccc(C2CCN(c3ccnc(N4CC5CCCC5C4)n3)CC2)cc1 (stereo partly drawn) [Example 11.78]
6.82	CC(=O)N[C@@H](C)c1ccc(C2CCN(c3ccc(OCc4ccccc4)cc3)CC2)cc1 [Example 9.34]
5.42	CCOc1ccc(N2CCC(c3ccc([C@H](C)NC(=O)N(C)Cc4ccn(C)n4)cc3)CC2)cc1 [Example 14.64]
5.70	CC(=O)N[C@@H](C)c1ccc(C2CCN(c3ncc(-c4cnccc4C)cn3)CC2)cc1 [Example 10.95]
5.85	C[C@H](NC(=O)C1CC1)c1ccc(C2CCN(c3nc(N4CCCC4)ncc3C#N)CC2)cc1 [Example 11.122]
6.20	CCOc1ccc(N2CCC(c3ccc([C@H](C)NC(C)=O)cc3)CC2)c(OCC)c1 [Example 1.42]
6.59	C=CCOc1cccc(N2CCC(c3ccc([C@H](C)NC(C)=O)cc3)CC2)c1 [Example 9.5]
5.19	CC(=O)N[C@@H](C)c1ccc(C2CCN(c3ncc(C(=O)NCc4cocn4)cn3)CC2)cc1 [Example 18.29]
6.05	C[C@H](NC(=O)C1CC1)c1ccc(C2CCN(c3cccc(OCC4CC4)c3)CC2)cc1 [Example 1.77]
5.15	COCCN(C)C(=O)c1cnc(N2CCC(c3ccc([C@H](C)NC(C)=O)cc3)CC2)nc1 [Example 18.25]
5.64	COC1CN(c2nccc(N3CCC(c4ccc([C@H](C)NC(C)=O)cc4)CC3)n2)C1 [Example 11.80]
5.31	CCOc1ccc(N2CCC(c3ccc([C@H](C)NC(=O)N(C)C(C)C)cc3)CC2)cc1 [Example 14.53]
7.15	C[C@H](NC(=O)C1CC1)c1ccc(C2CCN(c3ccc(OCC4CC4(F)F)cc3)CC2)cc1 (stereo partly drawn) [Example 1.139]
6.43	CC(=O)N[C@@H](C)c1ccc(C2CCN(c3cccc(OCC4CCCCO4)c3)CC2)cc1 (stereo partly drawn) [Example 9.15]
5.57	COC(=O)c1cnc(N2CCC(c3ccc([C@H](C)NC(C)=O)cc3)CC2)s1 [Example 4.101]
6.42	CC(=O)N[C@@H](C)c1ccc(C2CCN(c3ccc(OCC4CCC4)c(Cl)c3)CC2)cc1 [Example 9.45]
6.46	COC(=O)c1cccc(N2CCC(c3ccc([C@H](C)NC(C)=O)cc3)CC2)c1 [Example 15.2]
6.72	CC(=O)N[C@@H](C)c1ccc(C2CCN(c3cccc(OC4CCOCC4)c3)CC2)cc1 [Example 7.2]
6.47	CC(=O)N[C@@H](C)c1ccc(C2CCN(c3ccnc(OCC4CCOC4)c3)CC2)cc1 (stereo partly drawn) [Example 19.18]
6.32	COc1cc(N2CCC(c3ccc([C@H](C)NC(C)=O)cc3)CC2)ccc1OCC1CC1 [Example 9.44]
5.92	COc1cc(N2CCC(c3ccc([C@H](C)NC(C)=O)cc3)CC2)ccc1OC1CCCC1 [Example 8.38]
6.10	CCOc1ccnc(N2CCC(c3ccc([C@H](C)NC(C)=O)cc3)CC2)c1 [Example 5.47]

pIC50	SMILES
5.96	CC(=O)N[C@@H](C)c1ccc(C2CCN(c3ncc(-c4ccc(C(F)(F)F)cc4)cn3)CC2)cc1 [Example 10.45]
6.54	CC(=O)N[C@@H](C)c1ccc(C2CCN(c3ncc(-c4ccc5c(c4)OCCO5)cn3)CC2)cc1 [Example 10.23]
5.25	CCOc1ccc(N2CCC(c3ccc([C@H](C)NC(C)=O)cc3)CC2)cc1C#N [Example 8.16]
6.48	CCOc1ccc(N2CCC(c3ccc([C@H](C)NC(=O)OC)cc3)CC2)c(C#N)c1 [Example 15.18]
6.42	CC(=O)N[C@@H](C)c1ccc(C2CCN(c3ccnc(Oc4ccccc4F)n3)CC2)cc1 [Example 11.26]
4.86	CNc1cc(N2CCC(c3ccc([C@H](C)NC(C)=O)cc3)CC2)ncn1 [Example 11.85]
7.10	CC(=O)N[C@@H](C)c1ccc(C2CCN(c3cc(OC4CCC4)ncn3)CC2)cc1 [Example 11.109]
6.62	CCCOc1ccc(N2CCC(c3ccc([C@H](C)NC(C)=O)cc3)CC2)cn1 [Example 1.55]
5.96	CC(=O)N[C@@H](C)c1ccc(C2CCN(c3ncc(-c4cncc(C#N)c4)cn3)CC2)cc1 [Example 10.79]
6.40	CC(=O)N[C@@H](C)c1ccc(C2CCN(c3ccnc(OCc4ccc(F)cc4)c3)CC2)cc1 [Example 19.33]
6.24	CC(=O)N[C@@H](C)c1ccc(C2CCN(c3ncc(Br)cc3F)CC2)cc1 [Example 5.38]
5.54	C[C@H](NC(=O)C1CC1)c1ccc(C2CCN(c3ncnc(Cl)c3F)CC2)cc1 [Example 5.37]
6.82	CC(=O)N[C@@H](C)c1ccc(C2CCN(c3ccc(OCC4CC4C)cc3)CC2)cc1 (stereo partly drawn) [Example 27.1, N-((1S)-1-(4-(1-(4-((2-methylcyclopropyl)methoxy)phenyl)-piperidin-4-yl)phenyl)-ethyl)acetamide]
6.80	CC(=O)N[C@@H](C)c1ccc(C2CCN(c3ncc(-c4ccc(C)cc4Cl)cn3)CC2)cc1 [Example 10.66]
6.36	CC(=O)N[C@@H](C)c1ccc(C2CCN(c3cc(N(C)CC4CC4)ncn3)CC2)cc1 [Example 11.91]
6.48	CC(C)Oc1ccc(N2CCC(c3ccc([C@H](C)NC(=O)N(C)C)cc3)CC2)cc1 [Example 1.127]
5.08	CC(=O)N[C@@H](C)c1ccc(C2CCN(c3ccc(C(F)(F)F)nc3)CC2)cc1 [Example 15.8]
7.05	CC(=O)N[C@@H](C)c1ccc(C2CCN(c3ccc(OCCC(C)C)cc3)CC2)cc1 [Example 9.20]
5.96	CC#CCOc1ccc(N2CCC(c3ccc([C@H](C)NC(C)=O)cc3)CC2)cc1 [Example 9.25]
6.28	C[C@H](NC(=O)N(C)C)c1ccc(C2CCN(c3ccnc(Oc4cncnc4)c3)CC2)cc1 [Example 1.107]
7.15	CC(=O)N[C@@H](C)c1ccc(C2CCN(c3ccnc(OC4CCCC4)c3)CC2)cc1 [Example 19.4]
7.05	CC(=O)N[C@@H](C)c1ccc(C2CCN(c3ccc(OC4CCC4)cc3C#N)CC2)cc1 [Example 1.51]
6.77	CCOC(=O)c1ccnc(N2CCC(c3ccc([C@H](C)NC(C)=O)cc3)CC2)c1C [Example 5.29]
5.92	CC(=O)N[C@@H](C)c1ccc(C2CCN(c3ncc(-c4cnc(Br)n4C)cn3)CC2)cc1 [Example 10.74]
5.42	COCCOc1cc(N2CCC(c3ccc([C@H](C)NC(C)=O)cc3)CC2)ncn1 [Example 11.29]
6.70	CC(=O)N[C@@H](C)c1ccc(C2CCN(c3cc(Oc4ccc(F)cc4)ncn3)CC2)cc1 [Example 11.5]

SMILES	pIC50
CC(=O)N[C@@H](C)c1ccc(C2CCN(c3ccnc(OCC(C)C)c3)CC2)cc1 [Example 19.1, (S)—N-{1-[4-(2′-Isobutoxy-3,4,5,6-tetrahydro-2H-[1,4′]bipyridinyl-4-yl)-phenyl]-ethyl}-acetamide]	6.96
